# Test results from publication PMC12348585, “Semi-Synthesis, Anti-Leukemia Activity, and Docking Study of Derivatives from 3α,24-Dihydroxylup-20(29)-en-28-Oic Acid” (Molecules, 2025).
# Read-outs that look alike come from different tables or passages of the source.
# What was measured:
# CCRF-CEM = experiment: Cell viability assay (DAPI, flow cytometry), CCRF-CEM; type: cell-based; conditions: for IC50: Homo sapiens, CCRF-CEM, 48 h, mean ± SEM, N/A: not active; for SI: selectivity index, CCRF-CEM: ratio of IC50 in the MNC line over IC50 in the leukemia cell line
# Method: (§1) Cell lines were cultured in RPMI 1640 medium (Roswell Park Memorial Institute medium) supplemented with 10% fetal bovine serum (FBS) and 1% penicillin–streptomycin. Cultures were maintained at 37 °C in a humidified incubator with 5% CO2. All biological evaluations were performed using cell between passages 3 and 4. All compounds were dissolved in dimethyl sulfoxide (DMSO) at a concentration of 20 mg/mL. In all assays, culture medium containing 0.1% DMSO was used as the negative control, while dasatinib was included as the positive control. Normal mononuclear cells (MNCs) were included as the normal cell control. All experiments were performed in triplicate. Leukemic cell lines and normal mononuclear cells (MNCs) were used to evaluate the cytotoxicity of the compounds. Leukemic cells (1 × 10^5 cells/well) were cultured in 96-well plates and treated with increasing concentrations of compounds (0.02, 0.2, 2.0, and 20 µM) for 48 h. After incubation, both leukemic cells and MNCs were collected, washed with phosphate-buffered saline (PBS), and stained with DAPI (500 ng/mL) for 15 min in darkness, following the manufacturer’s instructions. Fluorescence was analyzed using a FACSVerse flow cytometer (BD Bioscience, San Jose, CA, USA). Flow cytometry data were analyzed using FlowJo^TM software (version 10.9). […] All experiments were performed in triplicate, and results were expressed as means ± standard errors of the means (SEMs). Statical analysis was performed using one-way analysis of variance (ANOVA), followed by Dunnett’s post hoc test to compare treated groups against the control.
# REH = experiment: Cell viability assay (DAPI, flow cytometry), REH; type: cell-based; conditions: for IC50: Homo sapiens, REH, 48 h, mean ± SEM, N/A: not active; for SI: selectivity index, REH: ratio of IC50 in the MNC line over IC50 in the leukemia cell line
# Method: as §1
# JURKAT = experiment: Cell viability assay (DAPI, flow cytometry), JURKAT; type: cell-based; conditions: for IC50: Homo sapiens, Jurkat, 48 h, mean ± SEM, N/A: not active; for SI: selectivity index, JURKAT: ratio of IC50 in the MNC line over IC50 in the leukemia cell line
# Method: as §1
# [1] = Cell viability assay in normal mononuclear cells; type: cell-based, human; conditions: human
# Method: (§2) All compounds were dissolved in dimethyl sulfoxide (DMSO) at a concentration of 20 mg/mL. In all assays, culture medium containing 0.1% DMSO was used as the negative control, while dasatinib was included as the positive control. Normal mononuclear cells (MNCs) were included as the normal cell control. All experiments were performed in triplicate. Normal mononuclear cells (MNCs) were isolated from peripheral blood mononuclear cells obtained from healthy human donors. Cell collection was conducted in accordance with institutional guidelines, including written informed consent from each participant. All procedures were approved by Ethics and Scientific Committee of the Mexican Institute of Social Security (IMSS, ethical approval number: CNIC R-2021-785-025). The MNCs were purified using FicollPaque Plus (Pharmacia Biotech, Uppsala, Sweden) by centrifugation at 400× g for 30 min at room temperature, following the manufacturer’s protocol. The resulting cells were resuspended in RPMI-1640 medium supplemented with 10% fetal bovine serum (FBS) and counted using a hemocytometer after trypan blue staining, confirming a viability of 95% [56]. […] After incubation, both leukemic cells and MNCs were collected, washed with phosphate-buffered saline (PBS), and stained with DAPI (500 ng/mL) for 15 min in darkness, following the manufacturer’s instructions. Fluorescence was analyzed using a FACSVerse flow cytometer (BD Bioscience, San Jose, CA, USA). Flow cytometry data were analyzed using FlowJo^TM software (version 10.9). […] All experiments were performed in triplicate, and results were expressed as means ± standard errors of the means (SEMs). Statical analysis was performed using one-way analysis of variance (ANOVA), followed by Dunnett’s post hoc test to compare treated groups against the control.
# K562 cells = tested on: K562 cells; design: method as in PMID 36080390; conditions: cited from earlier work
# HL-60 cells = tested on: HL-60 cells; design: method as in PMID 36080390; conditions: cited from earlier work
# MOLT-4 = experiment: Cell viability assay (DAPI, flow cytometry), MOLT-4; type: cell-based; conditions: Homo sapiens, MOLT-4; 48 h; mean ± SEM; N/A: not active
# Method: as §1
# THP-1 = experiment: Cell viability assay (DAPI, flow cytometry), THP-1; type: cell-based; conditions: for IC50: Homo sapiens, THP-1, 48 h, mean ± SEM, N/A: not active
# Method: as §1
# [2] = tested on: leukemia cell lines (CCRF-CEM, REH, JURKAT, MOLT-4, THP-1); experiment: Cell viability assay, all leukemia cell lines tested (summary statements); type: cell-based
# Method: as §1
# MOLT-4 cell line = experiment: Apoptosis assay (annexin V-FITC/DAPI flow cytometry), MOLT-4; type: cell-based
# Method: (§3) Since compound T1c was the only derivative that decreased the cell viability of leukemic cells (IC50 ≤ 20 µΜ), without affecting viability in normal MNC cells, its mode of action to exert cytotoxic effects was evaluated by flow cytometry techniques, determining the apoptotic effect at 48 h, using ½ IC50 and IC50 concentrations obtained in the viability assay in the different leukemia cell lines. Dasatinib at different concentrations was included as a positive control. Cell death was quantified by dual staining with annexin V-FITC and DAPI. Annexin V binds to externalized phosphatidylserine residues during early and late apoptosis, whereas DAPI penetrates membrane-compromised cells, distinguishing between late apoptotic and necrotic cells. The total percentage of apoptotic cells was calculated as the sum of early and late apoptotic populations. The results were normalized to 100% with respect to the negative control.
# (§4) Apoptosis induction was evaluated by flow cytometry. Cells (1 × 10^5 cells/well) were cultured in 96-well plates and exposed to the compounds at two concentrations (½ and 1 × IC50). After 48 h of treatment, the cells were washed with phosphate-buffered saline (PBS) and stained with annexin V-FITC (BD Bioscience) for 15 min in the dark. Following a second PBS wash, the cells were stained with DAPI (500 ng/mL) for 15 min in darkness. The stained samples were subsequently analyzed on a FACSVerse cytometer (BD Bioscience, San Jose, CA, USA).
# CCRF-CEM cell line = experiment: Apoptosis assay (annexin V-FITC/DAPI flow cytometry), CCRF-CEM; type: cell-based
# Method: as §3, §4
# JURKAT cell line = experiment: Apoptosis assay (annexin V-FITC/DAPI flow cytometry), JURKAT; type: cell-based
# Method: as §3, §4
# THP-1 cell line = experiment: Apoptosis assay (annexin V-FITC/DAPI flow cytometry), THP-1; type: cell-based
# Method: as §3, §4
# [3] = tested on: peripheral blood mononuclear cells (MNCs); experiment: Cell viability assay in normal mononuclear cells; type: cell-based, human
# Method: as §2
# [4] = MOLT-4, positive control (dasatinib), 48 h
# [5] = positive control (dasatinib), 48 h
# [6] = THP-1, positive control (dasatinib), 48 h
smiles,measurement,setting,value
"C=C(C=O)[C@@H]1CC[C@]2(C(=O)O)CC[C@]3(C)C(CCC4[C@@]5(C)CC[C@@H](O)[C@@](C)(CO)C5CC[C@]43C)C12 (stereo partly drawn) [Compound T2, 3α,23-dihydroxy-30-oxolup-20(29)-en-28-oic acid]",IC50,CCRF-CEM,> 20 µM
same,"SI: selectivity index, CCRF-CEM",CCRF-CEM,19.48
same,IC50,REH,> 20 µM
same,"SI: selectivity index, REH",REH,11.40
same,IC50,JURKAT,> 20 µM
same,"SI: selectivity index, JURKAT",JURKAT,8.56
same,IC50 at 48 h,[1],> 200 µM
same,K562 cell viability,K562 cells; at 102 µM,88.6 ± 0.40%
same,K562 cell viability,K562 cells; at 204 µM,24.3 ± 1.95%
same,HL-60 cell viability,HL-60 cells; at 102 µM,88.35 ± 3.85%
same,HL-60 cell viability,HL-60 cells; at 204 µM,85.15 ± 3.05%
"C=C(C=O)C1CCC2(C(=O)O)CCC3(C)C(CCC4C5(C)CCC(O)C(C)(CO)C5CCC43C)C12 (stereo not drawn) [Compound T1c, 3α,24-dihydroxy-30-oxolup-20(29)-en-28-oic acid]",IC50,CCRF-CEM,17.8 ± 1 µM
same,"SI: selectivity index, CCRF-CEM",CCRF-CEM,75.02
same,IC50,REH,> 20 µM
same,"SI: selectivity index, REH",REH,53.55
same,IC50,JURKAT,18.7 ± 1.4 µM
same,"SI: selectivity index, JURKAT",JURKAT,71.46
same,IC50,MOLT-4,13.9 ± 0.7 µM
same,IC50,THP-1,12.9 ± 0.1 µM
same,"SI: selectivity index, THP-1",THP-1; ratio of IC50 in the MNC line over IC50 in the leukemia cell line,103.46
same,IC50 at 48 h,[1],> 200 µM
same,IC50,"[2]; 48 h, summary over CCRF-CEM, REH, JURKAT, MOLT-4, THP-1, read-out: IC50 across all leukemia cell lines tested",12.9 to 24.9 µM
same,SI (selectivity against leukemia cell lines vs MNCs),[2]; summary statement,> 10
same,apoptosis rate (early + late),"MOLT-4 cell line; MOLT-4, IC50, 48 h",94.58 ± 0.45%
same,early apoptotic cells,"MOLT-4 cell line; MOLT-4, IC50, 48 h",30.12%
same,late apoptotic cells,"MOLT-4 cell line; MOLT-4, IC50, 48 h",64.46%
same,apoptosis rate (early + late),"MOLT-4 cell line; MOLT-4, ½ IC50, 48 h",69.91 ± 2.17%
same,early apoptotic cells,"MOLT-4 cell line; MOLT-4, ½ IC50, 48 h",41.15%
same,late apoptotic cells,"MOLT-4 cell line; MOLT-4, ½ IC50, 48 h",28.76%
same,apoptosis rate (early + late),"CCRF-CEM cell line; IC50, 48 h",97.13 ± 0.36%
same,early apoptotic cells,"CCRF-CEM cell line; IC50, 48 h",16.92%
same,late apoptotic cells,"CCRF-CEM cell line; IC50, 48 h",80.21%
same,apoptosis rate (early + late),"CCRF-CEM cell line; ½ IC50, 48 h",62.40 ± 1.57%
same,early apoptotic cells,"CCRF-CEM cell line; ½ IC50, 48 h",16.98%
same,late apoptotic cells,"CCRF-CEM cell line; ½ IC50, 48 h",45.42%
same,apoptosis rate (early + late),"JURKAT cell line; IC50, 48 h",96.37 ± 0.49%
same,early apoptotic cells,"JURKAT cell line; IC50, 48 h",47.61%
same,late apoptotic cells,"JURKAT cell line; IC50, 48 h",48.72%
same,apoptosis rate (early + late),"JURKAT cell line; ½ IC50, 48 h",67.14 ± 2.18%
same,early apoptotic cells,"JURKAT cell line; ½ IC50, 48 h",30.60%
same,late apoptotic cells,"JURKAT cell line; ½ IC50, 48 h",36.55%
same,apoptosis rate (early + late),"THP-1 cell line; THP-1, IC50, 48 h",52.23 ± 1.69%
same,early apoptotic cells,"THP-1 cell line; THP-1, IC50, 48 h",22.84%
same,late apoptotic cells,"THP-1 cell line; THP-1, IC50, 48 h",29.39%
same,apoptosis rate (early + late),"THP-1 cell line; THP-1, ½ IC50, 48 h",29.40 ± 2.66%
same,early apoptotic cells,"THP-1 cell line; THP-1, ½ IC50, 48 h",14.50%
same,late apoptotic cells,"THP-1 cell line; THP-1, ½ IC50, 48 h",14.90%
"C=C(CO)C1CCC2(C(=O)O)CCC3(C)C(CCC4C5(C)CCC(O)C(C)(CO)C5CCC43C)C12 (stereo not drawn) [Compound T1d, 3α,24,30-trihydroxylup-20(29)-en-28-oic acid]",IC50 MNCs,[3],no activity
same,IC50 across all leukemia cell lines tested,"[2]; 48 h, summary over CCRF-CEM, REH, JURKAT, MOLT-4, THP-1",no activity
"Cc1nc(Nc2ncc(C(=O)Nc3c(C)cccc3Cl)s2)cc(N2CCN(CCO)CC2)n1 [Dasatinib, dasatinib, reference compound]",IC50,CCRF-CEM,10.8 ± 1.2 µM
same,IC50,REH,5.43 ± 0.3 µM
same,IC50,JURKAT,5.26 ± 0.5 µM
same,IC50,MOLT-4,2.63 ± 0.1 µM
same,IC50,THP-1,4.66 ± 0.3 µM
same,early apoptotic cells,MOLT-4 cell line; [4],1.40%
same,late apoptotic cells,MOLT-4 cell line; [4],94.74%
same,apoptosis rate (early + late),"MOLT-4 cell line; MOLT-4, positive control (dasatinib), 48 h, normalized to negative control",96.13 ± 0.71%
same,apoptosis rate (early + late),JURKAT cell line; [5],97.19 ± 0.11%
same,early apoptotic cells,JURKAT cell line; [5],0.59%
same,late apoptotic cells,JURKAT cell line; [5],96.60%
same,apoptosis rate (early + late),THP-1 cell line; [6],32.14 ± 3.15%
same,early apoptotic cells,THP-1 cell line; [6],7.21%
same,late apoptotic cells,THP-1 cell line; [6],24.93%
